{"source": "patent US20160213849A1", "about": "“CONDITIONAL REQUIRED PRIMING” (SANOFI-AVENTIS DEUTSCHLAND GMBH, priority 2013, published 2016)", "type_in_all_cases": "cell-based", "key": {"bacteria and fungi/yeast": {"test_system": "bacteria and fungi/yeast", "assay": "comparison of test solution results to Ph. Eur. and USP criteria", "description": "The Ph. Eur. and USP criteria are given in table 1, wherein the numbers designate the required order of magnitude in CFU (colony forming unit) decrease as a function of time since the time of contamination (T0).\n(§1) Test solutions with m-cresol concentrations of between 2.7 mg/ml down to 1.5 mg/ml were inoculated with an inoculum of different bacteria and fungi/yeast and stored for 28 days. During the test, the bacteria and fungi/yeast population of the test solutions were repeatedly analyzed.\nThe analysis presented in table 2 for the 1.8 mg/ml m-cresol test solution was also performed for the test solutions with different m-cresol contents. The results were then compared to the Ph.Eur. and USP criteria to determine, which m-cresol contents are sufficient to fulfil these criteria."}, "Staphilococcus aureus": {"test_system": "Staphilococcus aureus", "assay": "preservative efficacy test of inoculated m-cresol test solutions", "conditions": "1.8 mg/ml m-cresol", "description": "(§2) In a first experiment, the minimum m-cresol concentration necessary to ensure microbiological integrity was determined.\nas §1"}, "Escherichia coli": {"test_system": "Escherichia coli", "assay": "preservative efficacy test of inoculated m-cresol test solutions", "conditions": "1.8 mg/ml m-cresol", "description": "as §2, §1"}, "Candida albicans": {"test_system": "Candida albicans", "assay": "preservative efficacy test of inoculated m-cresol test solutions", "conditions": "1.8 mg/ml m-cresol", "description": "as §2, §1"}, "Aspergillus niger": {"test_system": "Aspergillus niger", "assay": "preservative efficacy test of inoculated m-cresol test solutions", "conditions": "1.8 mg/ml m-cresol", "description": "as §2, §1"}, "Pseudomonas aeruginosa": {"test_system": "Pseudomonas aeruginosa", "assay": "preservative efficacy test of inoculated m-cresol test solutions", "set-up": "unit not given beside the values", "conditions": "1.8 mg/ml m-cresol", "description": "as §2, §1"}}, "note": "Values joined by “and” are separate entries in the source; they are usually repeats but may differ in a detail not shown here. Equal entries are not always repeated."}
{"smiles": "Cc1cccc(O)c1", "note": "[m-cresol]", "values": [{"measurement": "m-cresol content still enough to fulfil both the Ph.Eur. criterion A and the USP criteria", "setting": "bacteria and fungi/yeast; conclusion of first experiment", "result": "2.1 mg/mL and 1.8 mg/mL"}, {"measurement": "m-cresol content down to which the USP criteria are fulfilled", "setting": "bacteria and fungi/yeast; lowest content tested 1.5 mg/ml", "result": 1.5, "unit": "mg/mL"}, {"measurement": "Staphilococcus aureus content", "setting": "Staphilococcus aureus; 6 h", "result": 2200}, {"measurement": "Staphilococcus aureus content", "setting": "Staphilococcus aureus; 24 h", "result": "<10"}, {"measurement": "Staphilococcus aureus content", "setting": "Staphilococcus aureus; 7 d", "result": "<10"}, {"measurement": "Staphilococcus aureus content", "setting": "Staphilococcus aureus; 14 d", "result": "<10"}, {"measurement": "Staphilococcus aureus content", "setting": "Staphilococcus aureus; 28 d", "result": "<10"}, {"measurement": "Staphilococcus aureus content", "setting": "Staphilococcus aureus; Start (T0)", "result": 170000}, {"measurement": "Escherichia coli content", "setting": "Escherichia coli; 6 h", "result": 55}, {"measurement": "Escherichia coli content", "setting": "Escherichia coli; 24 h", "result": "<10"}, {"measurement": "Escherichia coli content", "setting": "Escherichia coli; 7 d", "result": "<10"}, {"measurement": "Escherichia coli content", "setting": "Escherichia coli; 14 d", "result": "<10"}, {"measurement": "Escherichia coli content", "setting": "Escherichia coli; 28 d", "result": "<10"}, {"measurement": "Escherichia coli content", "setting": "Escherichia coli; Start (T0)", "result": 190000}, {"measurement": "Candida albicans content", "setting": "Candida albicans; 7 d", "result": 100}, {"measurement": "Candida albicans content", "setting": "Candida albicans; 14 d", "result": 30}, {"measurement": "Candida albicans content", "setting": "Candida albicans; 28 d", "result": "<10"}, {"measurement": "Candida albicans content", "setting": "Candida albicans; Start (T0)", "result": 400000}, {"measurement": "Aspergillus niger content", "setting": "Aspergillus niger; 7 d", "result": 15}, {"measurement": "Aspergillus niger content", "setting": "Aspergillus niger; 14 d", "result": "<10"}, {"measurement": "Aspergillus niger content", "setting": "Aspergillus niger; 28 d", "result": "<10"}, {"measurement": "Aspergillus niger content", "setting": "Aspergillus niger; Start (T0)", "result": 250000}, {"measurement": "Pseudomonas aeruginosa content", "setting": "Pseudomonas aeruginosa; 6 h", "result": "<10"}, {"measurement": "Pseudomonas aeruginosa content", "setting": "Pseudomonas aeruginosa; 24 h", "result": "<10"}, {"measurement": "Pseudomonas aeruginosa content", "setting": "Pseudomonas aeruginosa; 7 d", "result": "<10"}, {"measurement": "Pseudomonas aeruginosa content", "setting": "Pseudomonas aeruginosa; 14 d", "result": "<10"}, {"measurement": "Pseudomonas aeruginosa content", "setting": "Pseudomonas aeruginosa; 28 d", "result": "<10"}, {"measurement": "Pseudomonas aeruginosa content", "setting": "Pseudomonas aeruginosa; Start (T0)", "result": 23000}]}
